Data reported in patent US20260240784A1, “PHARMACEUTICAL COMPOSITIONS WITH IMPROVED DISSOLUTION” (Applied Materials, Inc., priority 2023, published 2026).
Where two headings read alike, the source gives them in different places.

Assays:
[1] = In vivo pharmacokinetic study in Beagle dogs; conditions: dog, Beagle dogs (n=6)
[2] = in vivo; conditions: Wistar, rat, po

`CC(C)OC(=O)C(C)(C)Oc1ccc(C(=O)c2ccc(Cl)cc2)cc1` [uncoated particles, fenofibrate] showed an AUC(0-t) ([1]; read-out: AUC0-t, Arithmetic Mean) of 8690 ng·h/mL, an AUC(0-t) ([1]; read-out: AUC0-t, Geometric Mean) of 7800 ng·h/mL and a Cmax ([1]; read-out: Cmax, Arithmetic Mean) of 497 ng/mL. The Cmax ([1]; read-out: Cmax, Geometric Mean) was 430 ng/mL, the AUC [2] was 149000 ng·h/mL and the Cmax [2] was 12000 ng/mL. It also gave a Tmax [2] of 4 h.
